# In patent US11292807B2 (OCEANS LTD., priority 2015, dated 2022):
# Where “and” joins values, the source holds several entries; their conditions need not be identical. Equal entries are not always repeated. Where two headings read alike, the source gives them in different places.
# Experiments:
# [1] = system: U373 (glioblastoma-astrocytoma); experiment: CIMA assay, cell viability, U373; settings: for Fold change in viability AVG / Average cell viability: U373
# MDA-MB = settings: MDA-MB
# [2] = system: MCF7 (mammary gland adenocarcinoma); experiment: CIMA assay, cell viability, MCF7; type: cell-based, human; settings: SDS 5% control
# Description: (§1) Stock solutions of the extracts were prepared in dimethylsulfoxide (DMSO) at 10 mg/mL and stored in 200 μl aliquots at −20° C. until analysis. This preparation ensured that the DMSO delivered to cells in culture never exceeded 1%.
# (§2) Prepared extracts were assessed following chronic exposure conditions in which cells were seeded at 2×10^3 cells/well (96 well-plate) and incubated with test compounds for 72 h. Each compound was evaluated over a range of concentrations (0, 10, 25, 50 or 100 μg/ml). Cell proliferation was initially assessed using a standard colorimetric indicator of metabolic activity (CIMA) assay. In this assay, tetrazole reduction was evaluated as a measure of metabolic function that evaluates mitochondrial activity to determine the extent of cell proliferation within a culture. This assay is based on the reduction of yellow tetrazolium salt to purple formazan by mitochondrial reductases enzyme in viable cells, resulting in a color changed that confers a change in absorbance.
# [3] = system: SKOV3 (ovarian adenocarcinoma); experiment: CIMA assay, cell viability, SKOV3; settings: SKOV
# [4] = system: SKOV3 (ovarian adenocarcinoma)
# PC3 [5] = experiment: CIMA assay, cell viability, PC3; settings: PC3
# A549 (lung carcinoma) = experiment: CIMA assay (colorimetric indicator of metabolic activity), cell viability, A549; settings: A549; for Average cell viability: unit assumed
# [6] = system: CCD1079SK (fibroblast, noncancerous but proliferating); experiment: CIMA assay, cell viability, CCD1079SK; settings: for Fold change in viability AVG / Average cell viability: CCD
# Description: as §1, §2
# [7] = system: THP-1 (acute monocytic leukemia); experiment: CIMA assay, cell viability, THP-1; settings: THP-1
# PC3 [8] = system: PC3
smiles,measurement,setting,value
"CCCCCCCCCCCCOS(=O)(=O)[O-].[Na+] [SDS, reference compound]","AVG (CIMA assay, cell viability)","[1]; U373, SDS 5% control",58.1 and 44.1
same,viability (AVG),"[1]; U373, SDS 5% control",48.4
same,Fold change in viability AVG,[1]; positive control 250 ug/mL,0.05
same,Average cell viability,[1]; positive control 250 ug/ml,4%
same,Fold change in viability AVG,[1]; positive control SDS 250 ug/mL,0.05
same,Average cell viability,[1]; positive control SDS 250 ug/ml,4%
same,Fold change in viability AVG,MDA-MB; positive control 250 ug/mL,0.16
same,Fold change in viability AVG,MDA-MB; positive control SDS 250 ug/mL,0.16
same,"AVG (CIMA assay, cell viability)",[2],49.9
same,viability (AVG),[2],44.1
same,Fold change in viability AVG,[3]; positive control 250 ug/mL,0.10
same,Fold change in viability AVG,[3]; positive control SDS 250 ug/mL,0.10
same,"AVG (CIMA assay, cell viability)",[4],56.5
same,viability (AVG),[4],78.9%
same,Fold change in viability AVG,PC3 [5]; positive control 250 ug/mL,0.08
same,Fold change in viability AVG,PC3 [5]; positive control SDS 250 ug/mL,0.08
same,viability (AVG),A549 (lung carcinoma); SDS 5% control,68.7
same,Fold change in viability AVG,A549 (lung carcinoma); positive control 250 ug/mL,0.13
same,Average cell viability,A549 (lung carcinoma); positive control 250 ug/ml,11%
same,Fold change in viability AVG,A549 (lung carcinoma); positive control SDS 250 ug/mL,0.13
same,Average cell viability,A549 (lung carcinoma); positive control SDS 250 ug/ml,11%
same,viability (AVG),"[6]; CCD1079SK, SDS 5% control",9.4
same,"AVG (CIMA assay, cell viability)","[6]; CCD10795K, SDS 5% control",11.3
same,Fold change in viability AVG,[6]; positive control 250 ug/mL,0.06
same,Average cell viability,[6]; positive control 250 ug/ml,5%
same,Fold change in viability AVG,[6]; positive control SDS 250 ug/mL,0.06
same,Average cell viability,[6]; positive control SDS 250 ug/ml,5%
same,"AVG (CIMA assay, cell viability)",[7]; SDS 5% control,36.2
same,viability (AVG),[7]; SDS 5% control,20.3
same,Fold change in viability AVG,[7]; positive control 250 ug/mL,0.18
same,Average cell viability,[7]; positive control 250 ug/ml,16%
same,Fold change in viability AVG,[7]; positive control SDS 250 ug/mL,0.18
same,Average cell viability,[7]; positive control SDS 250 ug/ml,16%
same,viability (AVG),PC3 [8],77.3%
